In the NIST ThermoML archive (doi:10.1016/j.fluid.2011.10.017):
Numbers after ± are expanded uncertainties.

Key:
[1] = 298.15 K; 101.33 kPa; Liquid; Vibrating tube method
[2] = refractive index (Na D-line) (dimensionless); conditions: 298.15 K; 101.33 kPa; Liquid; Standard Abbe refractometry

## CCCCCC[n+]1ccc(C)cc1C.O=S(=O)([N-]S(=O)(=O)C(F)(F)F)C(F)(F)F
[1]
  mass density: 1339.39 ± 1.6 kg/m3
[2]
  refractive index: 1.45336 ± 0.00052

## CCCCCC [hexane]
[1]
  mass density: 655.09 ± 0.26 kg/m3
[2]
  refractive index: 1.37236 ± 0.00039

## c1ccncc1 [pyridine]
[1]
  mass density: 978.24 ± 0.1 kg/m3
[2]
  refractive index: 1.50636 ± 0.00035

## c1ccsc1 [thiophene]
[1]
  mass density: 1058.61 ± 0.12 kg/m3
[2]
  refractive index: 1.52523 ± 0.00035

## Cc1ccccc1 [toluene]
[1]
  mass density: 862.18 ± 0.13 kg/m3
[2]
  refractive index: 1.49367 ± 0.00035
